According to patent publication US5824647A, “Chemotactic wound healing peptides” (priority 1995, dated 1998):
Where “and” joins values, the source holds several entries; their conditions need not be identical. Identical values can stand only once. Entries after “also recorded” stand apart in the source; their conditions may differ.

Key:
[1] = test system: infant foreskin fibroblasts; assay: Fibroblast chemotaxis in modified Boyden chambers (incl. checkerboard and deactivation studies); format: cell-based, human; details: for fibroblast chemotaxis / migration (in words): peptide in lower compartment of modified Boyden chamber; for Mean Fibroblasts per 20 OIF + SEM: Experiment 1, lower compartment: TGF-β1 50 pg/ml, peptide 368-374 1.4 × 10^-5 M, peptide 364-378 6.7 × 10^-7 M, fibronectin 20 μg/ml; for chemotactic response of fibroblasts to peptide with fibronectin in upper chamber (in words): unrelated chemoattractant fibronectin in the upper chamber
Description: Target cells used in in vitro chemotaxis assays were infant foreskin fibroblasts obtained by establishing monolayer cultures from explants of tissue. Cells were maintained in Eagle's minimum essential medium (MEM) supplemented with non-essential amino acids, antibiotics, 50 ug/ml ascorbic acid, and 9% fetal calf serum (FCS). Cells were passaged by trypsinization every 3-5 days.
Infant foreskin fibroblasts were harvested from monolayer culture by gentle trypsinization, washed twice in serum-free Eagles's MEM and adjusted to a final concentration of 250,000 cells/ml. The cell suspension (0.4 ml) was added to the upper compartments of blind well modified Boyden chemotaxis chambers. The peptides of the invention being assayed for chemotactic activity were solubilized in glycylglycine (0.015M) buffered NaCl (0.14M), pH 7.2, hereinafter referred to as GGBS, and diluted 50% with serum-free MEM. Test substances were added to the lower compartment of the chemotaxis chambers. Gelatin-treated polycarbonate filters (8 micron pore size) were interposed between the lowest compartment and the upper cell compartment. Loaded chambers were incubated at 37° C. in a humidified atmosphere containing 5% CO2 for 150 minutes. After incubation, the chambers were disassembled, the filters removed, stained with hematoxylin, and mounted on glass cover slips. Fibroblast chemotaxis was quantitated by counting the number of fibroblasts in 20 oil immersion fields (OIF) that migrated and adhered to the lower surface of each filter. Samples were tested in quadruplicate and results are expressed as mean number of fibroblasts per 20 OIF±standard error of the mean (SEM). Chemotaxis neutralization studies were performed by adding TGF-β1 or fibronectin to the upper cell compartment and testing for effects on fibroblast migration to the TGF-β peptides.
Zigmond-Hirsch checkerboard analysis (Zigmond & Hirsch, J. Exptl. Med. 137:387, 1972) was performed to determine whether the 7-mer peptide 368-374 (Val Tyr Tyr Val Gly Arg Lys) induced chemotaxis of fibroblasts, monocytes and neutrophils.
Deactivation studies were utilized to determine whether the peptides of the invention containing the 7-mer peptide amino acid sequence induced chemotaxis via cellular receptors and mechanisms utilized by intact TGF-β.

guinea pig skin = assay: In vivo fibrosis assay, intradermal injection into guinea pig skin; parameters: species or system Guinea pigs (Hartley strain); details: for fibrogenic response / fibrosis in guinea pig skin (in words): intradermal injection of peptide in collagen carrier; for Histologic Score (degree of fibrosis), Peptide site: 400 μg peptide in 1.7 mg type I collagen carrier, 100 μl intradermal, 9 days, one value per guinea pig, scale 0 to 4
Description: The ability of the peptides to induce cellular chemotaxis and a fibrogenic response (fibroblast proliferation and collagen synthesis) in vivo may be measured by intradermal injection of the peptides into the skin of guinea pigs. Generally, the in vivo, guinea pig skin studies were carried out according to the following protocol:
8 mg/cc stocks of the peptides according to the present invention in Dulbecco's PBS were sterile filtered using a 0.45μ syringe filter. PBS plus ZYDERM™ collagen (Collagen Corp., Inc.) was used as a control. Peptide stocks were diluted 1:1 with ZYDERM™ collagen (35 mg/ml), resulting in a 4 mg/ml peptide-collagen suspension. Peptide-collagen suspensions were kept on ice at all times and drawn up in 1 cc syringes fitted with 27 or 28 gauge needles.
(§1) Guinea pigs (Hartley strain, female, weanlings) were shaved on the left and right sides of their abdomens. 100 μl of a suspension of peptide-collagen was injected intradermally in one site on each side of each guinea pig. Each site was circled with an indelible ink pen. Pigs were remarked after 3 days. At appropriate times after injection, guinea pigs were sacrificed via CO2 narcosis. Animals were shaved and a depilatory was used to remove remaining stubble. Injection sites were excised using a skin biopsy punch (6 mm). Tissue was placed in vials with 10% neutral buffered formalin. Sections were processed for staining with H+E and Masson's Trichrome.
8 mg/cc stocks of TGF-β1 peptides in Dulbecco's PBS were sterile filtered using a 0.45μ syringe filter. PBS plus ZYDERM™ (Collagen Corp., Inc.) was used as a control. Peptide stocks were diluted 1:1 with ZYDERM™ collagen (35 mg/ml) resulting in a 4 mg/ml peptide-collagen suspension. Peptide-collagen suspensions were kept on ice at all times and drawn up in 1 cc syringes fitted with 27 or 28 gauge needles.
as §1, with “of” for “of a”, “peptide-collagenwas” for “peptide-collagen was”, “straining” for “staining”
In vivo fibrosis assays were performed. Guinea pigs were injected intradermally with 400 μg of either peptide VYYVGRK (SEQ ID NO. 1) or peptide PLPIVYYVGRKPKVE (SEQ ID NO. 6) in a 100 μl volume of saline containing type I bovine collagen carrier 1.7 mg (zyderm, Celtrex Corp. Palo Alto, Calif.). As a control, at a distant site on the same guinea pig, the collagen carrier plus saline was injected intradermally as a control. Nine days later, the animals were sacrificed, and the skin sectioned through the injection sites was processed for histology using Mason-Trichrome to stain collagen fibers. The degree of fibrosis was assessed at 400×magnification to determine degree of replacement of surrounding subcutaneous fat with newly synthesized collagen. FIG. 15 is a Mason-Trichrome, 400×[…] of 9 day post intradermal injection of guinea pig skin with 100 μl, 400 μg peptide PLPIVYYVGRKPKVE ([…]) in collagen carrier (1.7 mg). There is marked (score of 4) replacement of fat cells with newly synthesized collagen in the subcutaneous fatty layer. Fibroblasts are noted scattered throughout what was once subcutaneous fatty layer. FIG. 16 is a Mason-Trichrome 400×magnification of 9 days post intradermal injection of the same guinea pig as in […] at a distant site with saline and collagen carrier as a control. Note minimal (score of 1) replacement of fat cells with newly synthesized collagen. Few fibroblasts are visible in the subcutaneous fatty layer. […]

T-Cell = assay: T-cell proliferation; format: cell-based; parameters: key: NE = No Effect; details: Table II summary
fibroblasts = assay: Hyaluronate production by fibroblasts; format: cell-based; parameters: key to FIBROBLAST EFFECTS Hyaluronate: NE = No Effect
[2] = test system: infant foreskin fibroblasts; assay: Collagen production by fibroblasts (modified Peterofsky-Diegelman assay); format: cell-based, human; details: [3H]proline incorporation into collagenase-sensitive protein
[3] = Media added to upper compartment
[4] = TGF-β1 (50 pg/ml) added to upper compartment

340-391: synthetic peptide corresponding to sequence 340-391 of TGF-β1; positive chemotactic control (VLALYNQHNPGASAAPCCVPQALEPLPIVYYVGRKPKVEQLSNMIVRSCKCS; printed: Val Leu Ala Leu Tyr Asn Gln His Asn Pro Gly Ala Ser Ala Ala Pro Cys Cys Val Pro Gln Ala Leu Glu Pro Leu Pro Ile Val Tyr Tyr Val Gly Arg Lys Pro Lys Val Glu Gln Leu Ser Asn Met Ile Val Arg Ser Cys Lys Cys Ser) [Peptide 340-391]
fibroblast chemotaxis / migration (in words) [1]: migrated in a dose dependent fashion | fibrogenic response / fibrosis in guinea pig skin (in words) (guinea pig skin): induced a fibrinogenic response

PLPIVYYVGRKPKVE [Peptide 364-378, 15-mer peptide 364-378 of TGF-β1]
Mean Fibroblasts per 20 OIF + SEM [1, 3]: 122 ± 8 Fibroblasts per 20 OIF | Mean Fibroblasts per 20 OIF + SEM [1, 4]: 37 ± 5 Fibroblasts per 20 OIF | fibroblast chemotaxis / migration (in words) [1]: induced migration of fibroblasts, monocytes and neutrophils in a dose dependent fashion | chemotactic response of fibroblasts to peptide with fibronectin in upper chamber (in words) [1]: No such inhibition was seen | T-Cell Proliferation (T-Cell): NE | Histologic Score (degree of fibrosis), Peptide site (guinea pig skin): 4 (4 equals 75 to 100% of fat cells replaced with collagen) and 3 (3 equals replacement of 50 to 75% of fat cells with collagen) | fibrogenic response / fibrosis in guinea pig skin (in words) (guinea pig skin): induced a fibrinogenic response | fibrogenic response / fibrosis in guinea pig skin (in words) (guinea pig skin; listed as PLPIVYYVGRKPKVE): extensive collagen synthesis

VYYVGRK [Peptide 368-374, 7-mer corresponding to amino acids 368-374 of TGF-β1]
Mean Fibroblasts per 20 OIF + SEM [1, 3]: 75 ± 2 Fibroblasts per 20 OIF | Mean Fibroblasts per 20 OIF + SEM [1, 4]: 23 ± 1 Fibroblasts per 20 OIF | Fibroblasts per 20 OIF (mean ± SEM) ([1]; checkerboard: upper compartment 0, lower compartment 1.4 × 10^-6 M): 38 ± 2 Fibroblasts per 20 OIF | Fibroblasts per 20 OIF (mean ± SEM) ([1]; checkerboard: upper compartment 0, lower compartment 7.0 × 10^-6 M): 58 ± 5 Fibroblasts per 20 OIF | Fibroblasts per 20 OIF (mean ± SEM) ([1]; checkerboard: upper compartment 0, lower compartment 7.0 × 10^-7 M): 20 ± 3 Fibroblasts per 20 OIF | Fibroblasts per 20 OIF (mean ± SEM) ([1]; checkerboard: upper compartment 1.4 × 10^-6 M, lower compartment 0): 9 ± 1 Fibroblasts per 20 OIF | Fibroblasts per 20 OIF (mean ± SEM) ([1]; checkerboard: upper compartment 1.4 × 10^-6 M, lower compartment 1.4 × 10^-6 M): 9 ± 1 Fibroblasts per 20 OIF | Fibroblasts per 20 OIF (mean ± SEM) ([1]; checkerboard: upper compartment 1.4 × 10^-6 M, lower compartment 7.0 × 10^-6 M): 24 ± 2 Fibroblasts per 20 OIF | Fibroblasts per 20 OIF (mean ± SEM) ([1]; checkerboard: upper compartment 1.4 × 10^-6 M, lower compartment 7.0 × 10^-7 M): 10 ± 1 Fibroblasts per 20 OIF | Fibroblasts per 20 OIF (mean ± SEM) ([1]; checkerboard: upper compartment 7.0 × 10^-6 M, lower compartment 0): 7 ± 1 Fibroblasts per 20 OIF | Fibroblasts per 20 OIF (mean ± SEM) ([1]; checkerboard: upper compartment 7.0 × 10^-6 M, lower compartment 1.4 × 10^-6 M): 8 ± 1 Fibroblasts per 20 OIF | Fibroblasts per 20 OIF (mean ± SEM) ([1]; checkerboard: upper compartment 7.0 × 10^-6 M, lower compartment 7.0 × 10^-6 M): 11 ± 1 Fibroblasts per 20 OIF | Fibroblasts per 20 OIF (mean ± SEM) ([1]; checkerboard: upper compartment 7.0 × 10^-6 M, lower compartment 7.0 × 10^-7 M): 7 ± 1 Fibroblasts per 20 OIF | Fibroblasts per 20 OIF (mean ± SEM) ([1]; checkerboard: upper compartment 7.0 × 10^-7 M, lower compartment 0): 8 ± 1 Fibroblasts per 20 OIF | Fibroblasts per 20 OIF (mean ± SEM) ([1]; checkerboard: upper compartment 7.0 × 10^-7 M, lower compartment 1.4 × 10^-6 M): 24 ± 2 Fibroblasts per 20 OIF | Fibroblasts per 20 OIF (mean ± SEM) ([1]; checkerboard: upper compartment 7.0 × 10^-7 M, lower compartment 7.0 × 10^-6 M): 39 ± 4 Fibroblasts per 20 OIF | Fibroblasts per 20 OIF (mean ± SEM) ([1]; checkerboard: upper compartment 7.0 × 10^-7 M, lower compartment 7.0 × 10^-7 M): 10 ± 1 Fibroblasts per 20 OIF | fibroblast chemotaxis / migration (in words) [1]: does stimulate fibroblast chemotaxis and synthesis of collagen and hyaluronic acid; also recorded: induced migration of fibroblasts, monocytes and neutrophils in a dose dependent fashion; also recorded: induced primarily chemotaxis of fibroblasts | fibroblast chemotaxis / migration (in words) ([1]; listed as VYYVGRKK): induced fibroblast chemotaxis at all of the concentration tested | chemotactic response of fibroblasts to peptide with fibronectin in upper chamber (in words) [1]: No such inhibition was seen | synthesis of hyaluronic acid (in words) (fibroblasts): does stimulate fibroblast chemotaxis and synthesis of collagen and hyaluronic acid | T-Cell Proliferation (T-Cell): NE | Histologic Score (degree of fibrosis), Peptide site (guinea pig skin): 1 (1 equals replacement of 10 to 25% of the fat cells with collagen) | fibrogenic response / fibrosis in guinea pig skin (in words) (guinea pig skin): did not induce | collagen production by fibroblasts (in words) [2]: being the most potent | collagen production by fibroblasts (in words) ([2]; listed as VYYVGRKK): stimulated collagen production to some degree

YSKVLALYNQHNPGASAAPC (YSKVLALYNQHNPGASAAPC) [Peptide 337-356]
fibroblast chemotaxis / migration (in words) [1]: has the ability to induce fibroblast chemotaxis | chemotactic response of fibroblasts to peptide with fibronectin in upper chamber (in words) [1]: No such inhibition was seen | FIBROBLAST EFFECTS Hyaluronate (fibroblasts; Table II summary): NE | fibrogenic response / fibrosis in guinea pig skin (in words) (guinea pig skin): induced a fibrinogenic response
